The target of test [1] is T1, RAGE (sRAGE) binding to Carboxymethyl Lysine (CML) (Homo sapiens, UniProt Q15109).
T1 construct: extracellular domain can be isolated by proteolysis of RAGE to generate soluble RAGE (sRAGE) comprised of the V and C domains
The test is described as follows: ELISA assay: inhibition of sRAGE binding to plate-bound CML. The following applies: ligand CML coated on plate, concentration at which 50% signal has been inhibited. Here is the method:
(§1) This method is also described and claimed in co-pending U.S. Ser. No. 09/799,152 filed Mar. 5, 2001.
(§2) S100b, β-amyloid and CML (500 ng/100 μL/well) in 100 mM sodium bicarbonate/sodium carbonate buffer (pH 9.8) is loaded onto the wells of a NUNC Maxisorp flat bottom 96 -well microtitre plate. The plate is incubated at 4° C. overnight. The wells are aspirated and treated with 50 mM imidazole buffer saline (pH 7.2) (with 1 mM CaCl2/MgCl2) containing 1% bovine serum albumin (BSA) (300 μL/well) for two h at 37° C.
(§3) Test compounds are dissolved in nanopure water (concentration: 10-100 μM). DMSO may be used as co-solvent. 25 μL of test compound solution in 2% DMSO is added, along with 75 μL SRAGE (4.0×10^−4 mg/mL FAC) to each well and samples are incubated for 1 h at 37° C. The wells are washed 3 times with 155 mM NaCl pH 7.2 buffer saline and are soaked 10 seconds between each wash.
(§4) Non-Radioactive Binding is Performed by Adding:
(§5) 10 μL Biotinylated goat F(ab′)2 Anti-mouse IgG. (8.0×10^−4 mg/mL, FAC)
(§6) 10 μL Alk-phos-Sterptavidin (3×10^−3 mg/mL FAC)
(§7) 10 μL Polyclonal antibody for sRAGE (FAC 6.0×10^−3 mg/mL)
(§8) to 5 mL 50 mM imidazole buffer saline (pH 7.2) containing 0.2% bovine serum albumin and 1 mM […]. The mixture is incubated for 30 minutes at 37° C. 100 μL complex is added to each well and incubation is allowed to proceed at rt for 1 h. Wells are washed 3 times with wash buffer and soaked 10 s between each wash. 100 μL 1 mg/mL (pNPP) in 1 M diethanolamine (pH adjusted to 9.8 with HCl) is added. Color is allowed to develop in the dark for 1 to 2 h at rt. The reaction is quenched with 10 μL of stop solution (0.5 N NaOH in 50% ethanol) and the absorbance is measured spectrophotometrically with a microplate reader at 405 nm.
On the technique in general: In an ELISA, binding on a coated surface is turned into a signal by an enzyme label.

Test [2] concerns the target T2, RAGE (sRAGE) binding to S100b (Homo sapiens, UniProt Q15109).
T2 construct: extracellular domain can be isolated by proteolysis of RAGE to generate soluble RAGE (sRAGE) comprised of the V and C domains
The test is described as follows: ELISA assay: inhibition of sRAGE binding to plate-bound S100b. The following applies: ligand S100b coated on plate, concentration at which 50% signal has been inhibited, read-out: ELISA Assay IC50 (μM) S-100b. As to the method: as §1, §2, §3, §4, §5, §6, §7, §8

For test [3], the target named is T3, RAGE (sRAGE) binding to β-amyloid (Homo sapiens, UniProt Q15109).
T3 construct: extracellular domain can be isolated by proteolysis of RAGE to generate soluble RAGE (sRAGE) comprised of the V and C domains
T3 sequence (Q15109 23-342 limits assumed): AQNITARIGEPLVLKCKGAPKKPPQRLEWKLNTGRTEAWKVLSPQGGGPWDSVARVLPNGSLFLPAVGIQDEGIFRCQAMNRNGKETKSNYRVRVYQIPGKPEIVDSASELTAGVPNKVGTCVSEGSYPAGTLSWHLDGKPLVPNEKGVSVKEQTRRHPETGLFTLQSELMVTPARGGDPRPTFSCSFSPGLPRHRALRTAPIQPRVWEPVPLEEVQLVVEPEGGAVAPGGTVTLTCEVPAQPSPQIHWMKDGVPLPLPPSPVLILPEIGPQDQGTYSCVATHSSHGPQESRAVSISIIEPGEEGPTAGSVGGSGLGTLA
Kind of test: ELISA assay: inhibition of sRAGE binding to plate-bound β-amyloid. The following applies: ligand β-amyloid coated on plate, concentration at which 50% signal has been inhibited. As to the method: as §1, §2, §3, §4, §5, §6, §7, §8

T1 sequence (Q15109 23-342 limits assumed): as above
T2 sequence (Q15109 23-342 limits assumed): as above

`CCN(CC)CCCOc1ccc(NC(=O)CC(NC(C)C)c2cccc(OC(C)(C)C)c2)c(OCCCN(CC)CC)c1` (stereo not drawn) [Example 12, 3-Isopropylamino-3-(3-tert-butoxyphenyl)propionic Acid 2,4-Di-(3-diethylaminopropoxy)aniline Amide]: the values for the IC50 in test [1], in test [2] and in test [3] were 0.5 to 1 µM, 1 to 5 µM and 1 to 5 µM, respectively.
For the molecule `CCN(CC)CCCOc1ccc(N(Cc2ccccc2)C(=O)[C@@H](Cc2ccc(OCc3ccccc3)cc2)NC(=O)OC(C)(C)C)cc1` [Example 13, (2R)-2-tert-butoxycarbonylamino-3-[4-(benzyloxy)phenyl]propionic Acid 4-(3-diethylaminopropoxy)-N-benzylaniline Amide], the IC50 in test [1], in test [2] and in test [3] was 5 to 10 µM throughout.
In the case of `CCN(CC)CCCOc1ccc(N(CC2CCCC2)C(=O)[C@@H](Cc2ccc(OCc3ccccc3)cc2)NC(=O)OC(C)(C)C)cc1` [Example 14, (2R)-2-tert-butoxycarbonylamino-3-[4-(benzyloxy)phenyl]propionic Acid 4-(3-diethylaminopropoxy)-N-cyclopentylmethylaniline Amide], the IC50 in test [1], in test [2] and in test [3] was 1 to 5 µM each time.
Take `CCN(CC)CCCOc1ccc(N(CC2CCCCC2)C(=O)[C@H](N)Cc2ccc(OCc3ccccc3)cc2)cc1` [Example 16, (2R)-2-amino-3-[4-(benzyloxy)phenyl]propionic Acid 4-(3-diethylaminopropoxy)-N-cyclohexylmethylaniline Amide]: the IC50 in test [1], in test [2] and in test [3] was 1 to 5 µM throughout.
In the case of `CCN(CC)CCCOc1ccc(N(CC2CCCC2)C(=O)[C@H](N)Cc2ccc(OCc3ccccc3)cc2)cc1` [Example 17, (2R)-2-amino-3-[4-(benzyloxy)phenyl]propionic Acid 4-(3-diethylaminopropoxy)-N-cyclopentylmethylaniline Amide], the half-inhibitory concentration (IC50) in test [1] was 10 to 20 µM; in test [2] it was 5 to 10 µM; in test [3], 10 to 20 µM.
For `CCCCN(C(=O)[C@@H](Cc1ccc(OCc2ccccc2)cc1)NC(=O)OC(C)(C)C)c1ccc(OCCCN(CC)CC)cc1` [Example 18, (2R)-2-tert-butoxycarbonylamino-3-[4-(benzyloxy)phenyl]propionic Acid 4-(3-diethylaminopropoxy)-N-butylaniline Amide], the IC50 in test [1], in test [2] and in test [3] was 1 to 5 µM in each case.
On to `CCCCN(C(=O)[C@H](N)Cc1ccc(OCc2ccccc2)cc1)c1ccc(OCCCN(CC)CC)cc1` [Example 19, (2R)-2-amino-3-[4-(benzyloxy)phenyl]propionic Acid 4-(3-diethylaminopropoxy)-N-butylaniline Amide], for which the IC50 in test [1], in test [2] and in test [3] was 1 to 5 µM throughout.
With `CCCCN(C(=O)[C@@H](Cc1ccc(OCc2ccccc2)cc1)NC(=O)OC(C)(C)C)c1cccc(OCCCN(CC)CC)c1` [Example 20, (2R)-2-tert-butoxycarbonylamino-3-[4-(benzyloxy)phenyl]propionic Acid 3-(3-diethylaminopropoxy)-N-butylaniline Amide], the IC50 in test [1], in test [2] and in test [3] was 1 to 5 µM each time.
In the case of `CCCCN(C(=O)[C@H](N)Cc1ccc(OCc2ccccc2)cc1)c1cccc(OCCCN(CC)CC)c1` [Example 21, (2R)-2-amino-3-[4-(benzyloxy)phenyl]propionic Acid 3-(3-diethylaminopropoxy)-N-butylaniline Amide], the IC50 in test [1], in test [2] and in test [3] was 1 to 5 µM each time.
Take `CCCCOc1cc(OCCCN(CC)CC)ccc1NC(=O)C(CC1CCN(C(=O)OC(C)(C)C)CC1)NC(=O)OCC1c2ccccc2-c2ccccc21` (stereo not drawn) [Example 22, 3-(1-Tert-butoxycarbonylpiperidin-4-yl)-2-(9-fluorenylmethoxycarbonylamino)propionic Acid 4-Diethylaminopropoxy-2-butoxyaniline Amide]: the IC50 in test [1] lay within 0.5 to 1 µM; in test [2], 1 to 5 µM; in test [3] it was 0.5 to 1 µM.
Regarding `CCCCOc1cc(OCCCN(CC)CC)ccc1NC(=O)C(CC1CCNCC1)NC(=O)OCC1c2ccccc2-c2ccccc21` (stereo not drawn) [Example 23, 3-(Piperidin-4-yl)-2-(9-fluorenylmethoxycarbonylamino)propionic Acid 4-Diethylaminopropoxy-2-butoxyaniline Amide], the IC50 in test [1] is 1 to 5 µM; in test [2], 0.5 to 1 µM; in test [3], 0.5 to 1 µM.
As for `CCCCOc1cc(OCCCN(CC)CC)ccc1NC(=O)C(CC1CCN(Cc2ccccc2)CC1)NC(=O)OCC1c2ccccc2-c2ccccc21` (stereo not drawn) [Example 24, 3-(1-Benzylpiperidin-4-yl)-2-(9-fluorenylmethoxycarbonylamino)propionic Acid 4-Diethylaminopropoxy-2-butoxyaniline Amide], the IC50 is < 0.5 µM in test [1], 0.5 to 1 µM in test [2] and 0.5 to 1 µM in test [3].
Consider `CCCCOc1cc(OCCCN(CC)CC)ccc1NC(=O)C(N)CC1CCN(Cc2ccccc2)CC1` (stereo not drawn) [Example 25, 3-(1-Benzylpiperidin-4-yl)-2-aminopropionic Acid 4-Diethylaminopropoxy-2-butoxyaniline Amide], for which the IC50 in test [1] lay in the range of 10 to 20 µM; in test [2] it was 5 to 10 µM; in test [3], 10 to 20 µM.
For `CCCCOc1cc(OCCCN(CC)CC)ccc1NC(=O)C(CC1CCN(C(=O)OCc2ccccc2)CC1)NC(=O)OCC1c2ccccc2-c2ccccc21` (stereo not drawn) [Example 26, 3-(1 -Benzyloxycarbonylpiperidin-4-yl)-2-(9-fluorenylmethoxycarbonyamino)propionic Acid 4-Diethylaminopropoxy-2-butoxyaniline Amide], the figures for the IC50 in test [1], in test [2] and in test [3] were 0.5 to 1 µM, 1 to 5 µM and 1 to 5 µM, respectively.
As for `CCCCOc1cc(OCCCN(CC)CC)ccc1NC(=O)C(CC1CCN(C(=O)c2ccccc2)CC1)NC(=O)OCC1c2ccccc2-c2ccccc21` (stereo not drawn) [Example 27, 3-(1 -Benzoylpiperidin-4-yl)-2-(9-fluorenylmethoxycarbonylamino)propionic Acid 4-Diethylaminopropoxy-2-butoxyaniline Amide], the IC50 in test [1], in test [2] and in test [3] was 1 to 5 µM throughout.
For the molecule `CCCCOc1cc(OCCCN(CC)CC)ccc1NC(=O)C(CC1CCN(C(=O)c2ccccc2)CC1)NC(=O)c1ccccc1` (stereo not drawn) [Example 28, 3-(1-Benzoylpiperidin-4-yl)-2-benzoylaminopropionic Acid 4-Diethylaminopropoxy-2-butoxyaniline Amide], the IC50 was 1 to 5 µM in test [1], 5 to 10 µM in test [2] and 5 to 10 µM in test [3].
Turning to `CCCCOc1cc(OCCCN(CC)CC)ccc1NC(=O)C(CC1CCCN(C(=O)OC(C)(C)C)C1)NC(=O)OCC1c2ccccc2-c2ccccc21` (stereo not drawn) [Example 29, 3-(Tert-butoxycarbonylpiperidin-3-yl)-2-(9-fluorenylmethoxycarbonylamino)propionic Acid 4-Diethylaminopropoxy-2-butoxyaniline Amide], the IC50 in test [1], in test [2] and in test [3] was 1 to 5 µM throughout.
`CCCCOc1cc(OCCCN(CC)CC)ccc1NC(=O)C(CC1CCCNC1)NC(=O)OCC1c2ccccc2-c2ccccc21` (stereo not drawn) [Example 30, 3-(Piperidin-3-yl)-2-(9-fluorenylmethoxycarbonylamino)propionic Acid 4-Diethylaminopropoxy-2-butoxyaniline Amide]: the IC50 in test [1], in test [2] and in test [3] was 0.5 to 1 µM in each case.
In the case of “(2R)-2-tert-butoxycarbonylamino-3-[4-(benzyloxy)phenyl]propionic Acid 4-(3-diethylaminopropoxy)-N-isopropylaniline Amide [Example 15]”, the values for the IC50 in test [1], in test [2] and in test [3] were 5 to 10 µM, 1 to 5 µM and 1 to 5 µM, respectively.

A word on the IC50: it is the point on the concentration scale where inhibition reaches its midpoint.

The values are drawn from US7423177B2, “Carboxamide derivatives as therapeutic agents” (TransTech Pharma, Inc., priority 2001, dated 2008).
